≈ marks a conversion by molar mass, not a printed value.
Experiments:
Format in all cases: functional
Bacillus subtilis [1] = assay: Antimicrobial activity against Bacillus subtilis ATCC […] after 18 hrs by broth microdilution method
Bacillus cereus [2] = assay: Antimicrobial activity against Bacillus cereus ATCC 10876 after 18 hrs by broth microdilution method; conditions: ATCC 10876, 18 h
Micrococcus luteus [3] = assay: Antimicrobial activity against Micrococcus luteus ATCC 10240 after 18 hrs by broth microdilution method; conditions: ATCC 10240, 18 h
Staphylococcus aureus [4] = assay: Antimicrobial activity against Staphylococcus aureus ATCC 25923 after 18 hrs by broth microdilution method; conditions: ATCC 25923, 18 h
[5] = tested on: Staphylococcus epidermidis; assay: Antimicrobial activity against Staphylococcus epidermidis ATCC 12228 after 18 hrs by broth microdilution method; conditions: ATCC 12228, 18 h
Staphylococcus aureus [6] = assay: Antimicrobial activity against Staphylococcus aureus ATCC 6538 after 18 hrs by broth microdilution method; conditions: ATCC 6538, 18 h
Bacillus subtilis [7] = assay: Antimicrobial activity against Bacillus subtilis ATCC […] assessed as >99.9 % reduction in CFU after 18 hrs by broth microdilution method
Micrococcus luteus [8] = assay: Antimicrobial activity against Micrococcus luteus ATCC 10240 assessed as >99.9 % reduction in CFU after 18 hrs by broth microdilution method; conditions: ATCC 10240, 18 h
Proteus mirabilis [9] = assay: Antimicrobial activity against Proteus mirabilis ATCC 12453 assessed as >99.9 % reduction in CFU after 18 hrs by broth microdilution method; conditions: ATCC 12453, 18 h
Escherichia coli [10] = assay: Antimicrobial activity against Escherichia coli ATCC 25922 after 18 hrs by broth microdilution method; conditions: ATCC 25922, 18 h
Bacillus cereus [11] = assay: Antimicrobial activity against Bacillus cereus ATCC 10876 assessed as >99.9 % reduction in CFU after 18 hrs by broth microdilution method; conditions: ATCC 10876, 18 h
Staphylococcus aureus [12] = assay: Antimicrobial activity against Staphylococcus aureus ATCC 25923 assessed as >99.9 % reduction in CFU after 18 hrs by broth microdilution method; conditions: ATCC 25923, 18 h
[13] = tested on: Staphylococcus epidermidis; assay: Antimicrobial activity against Staphylococcus epidermidis ATCC 12228 assessed as >99.9 % reduction in CFU after 18 hrs by broth microdilution method; conditions: ATCC 12228, 18 h
Klebsiella pneumoniae [14] = assay: Antimicrobial activity against Klebsiella pneumoniae ATCC 13883 assessed as >99.9 % reduction in CFU after 18 hrs by broth microdilution method; conditions: ATCC 13883, 18 h
Klebsiella pneumoniae [15] = assay: Antimicrobial activity against Klebsiella pneumoniae ATCC 13883 after 18 hrs by broth microdilution method; conditions: ATCC 13883, 18 h
Staphylococcus aureus [16] = assay: Antimicrobial activity against Staphylococcus aureus ATCC 6538 assessed as >99.9 % reduction in CFU after 18 hrs by broth microdilution method; conditions: ATCC 6538, 18 h
Proteus mirabilis [17] = assay: Antimicrobial activity against Proteus mirabilis ATCC 12453 after 18 hrs by broth microdilution method; conditions: ATCC 12453, 18 h
Escherichia coli [18] = assay: Antimicrobial activity against Escherichia coli ATCC 25922 assessed as >99.9 % reduction in CFU after 18 hrs by broth microdilution method; conditions: ATCC 25922, 18 h

| SMILES | MIC (Bacillus subtilis [1]) [µg/mL] | MIC (Bacillus cereus [2]) [µg/mL] | MIC (Micrococcus luteus [3]) [µg/mL] | MIC (Staphylococcus aureus [4]) [µg/mL] | MIC [5] [µg/mL] | MIC (Staphylococcus aureus [6]) [µg/mL] | MIC (Escherichia coli [10]) [µg/mL] | MBC (Bacillus subtilis [7]) [µg/mL] | MBC (Micrococcus luteus [8]) [µg/mL] | MBC (Bacillus cereus [11]) [µg/mL] | MBC (Staphylococcus aureus [12]) [µg/mL] | MBC [13] [µg/mL] | MBC (Staphylococcus aureus [16]) [µg/mL] | MBC (Escherichia coli [18]) [µg/mL] | also measured |
| --- | --- | --- | --- | --- | --- | --- | --- | --- | --- | --- | --- | --- | --- | --- | --- |
| O=C(NNC(=S)Nc1c(F)cccc1F)c1cccc(Cl)c1 | 250 (≈ 731 µM) | 250 (≈ 731 µM) | 250 (≈ 731 µM) | 125 (≈ 366 µM) | 250 (≈ 731 µM) | 250 (≈ 731 µM) |  |  |  |  |  |  |  |  |  |
| Fc1cccc(F)c1-n1c(-c2cccc(Cl)c2)n[nH]c1=S | 500 (≈ 1540 µM) | 250 (≈ 772 µM) | 125 (≈ 386 µM) | 250 (≈ 772 µM) | 250 (≈ 772 µM) | 250 (≈ 772 µM) |  |  |  |  |  |  |  |  |  |
| O=C(NNC(=S)Nc1ccc(F)cc1)c1cccc(Cl)c1 | > 1000 | > 1000 | > 1000 | > 1000 | > 1000 | > 1000 |  |  |  |  |  |  |  |  |  |
| Cc1ccc(-n2c(-c3cccc(Cl)c3)n[nH]c2=S)cc1 | > 1000 | > 1000 | > 1000 | > 1000 | > 1000 | > 1000 |  |  |  |  |  |  |  |  |  |
| S=c1n(CN2CCCC2)nc(-c2cccc(Cl)c2)n1-c1ccc(I)cc1 | 125 (≈ 252 µM) | 125 (≈ 252 µM) | 125 (≈ 252 µM) | 125 (≈ 252 µM) | 250 (≈ 503 µM) | 250 (≈ 503 µM) | > 1000 | 1000 (≈ 2010 µM) | > 1000 | > 1000 | 1000 (≈ 2010 µM) | > 1000 | 1000 (≈ 2010 µM) | > 1000 | MBC (Proteus mirabilis [9]; read-out: MBC): > 1000 µg/mL; MBC (Klebsiella pneumoniae [14]; read-out: MBC): > 1000 µg/mL; MIC (Klebsiella pneumoniae [15]): 1000 µg/mL (≈ 2010 µM); MIC (Proteus mirabilis [17]; read-out: MIC): > 1000 µg/mL |
| S=c1n(CN2CCCC2)nc(-c2cccc(Cl)c2)n1-c1ccccc1 | 125 (≈ 337 µM) | 125 (≈ 337 µM) | 125 (≈ 337 µM) | 125 (≈ 337 µM) | 125 (≈ 337 µM) | 125 (≈ 337 µM) | 500 (≈ 1350 µM) | 500 (≈ 1350 µM) | 1000 (≈ 2700 µM) | > 1000 | 500 (≈ 1350 µM) | 1000 (≈ 2700 µM) | 500 (≈ 1350 µM) | 500 (≈ 1350 µM) | MBC (Proteus mirabilis [9]; read-out: MBC): > 1000 µg/mL; MBC (Klebsiella pneumoniae [14]; read-out: MBC): 500 µg/mL (≈ 1350 µM); MIC (Klebsiella pneumoniae [15]): 250 µg/mL (≈ 674 µM); MIC (Proteus mirabilis [17]; read-out: MIC): 500 µg/mL (≈ 1350 µM) |
| Fc1ccc(F)c(-n2c(-c3cccc(Cl)c3)n[nH]c2=S)c1 | 1000 (≈ 3090 µM) | 1000 (≈ 3090 µM) | 1000 (≈ 3090 µM) | > 1000 | 250 (≈ 772 µM) | > 1000 |  |  |  |  |  |  |  |  |  |
| Fc1cccc(F)c1-n1c(-c2cccc(Cl)c2)nn(CN2CCCC2)c1=S | 125 (≈ 307 µM) | 125 (≈ 307 µM) |  | 125 (≈ 307 µM) | 125 (≈ 307 µM) | 125 (≈ 307 µM) | 500 (≈ 1230 µM) | 500 (≈ 1230 µM) | 1000 (≈ 2460 µM) | 1000 (≈ 2460 µM) | 500 (≈ 1230 µM) | 1000 (≈ 2460 µM) | 500 (≈ 1230 µM) | 1000 (≈ 2460 µM) | MBC (Proteus mirabilis [9]): 1000 µg/mL (≈ 2460 µM); MBC (Micrococcus luteus [3]): 1000 µg/mL (≈ 2460 µM); MBC (Klebsiella pneumoniae [14]): 1000 µg/mL (≈ 2460 µM); MBC (Klebsiella pneumoniae [15]): 1000 µg/mL (≈ 2460 µM); MIC (Proteus mirabilis [17]): 1000 µg/mL (≈ 2460 µM) |
| CC1(C)S[C@@H]2[C@H](NC(=O)[C@H](N)c3ccccc3)C(=O)N2[C@H]1C(=O)O [AMPICILLIN] | 3 (≈ 8.59 µM) | 62.5 (≈ 179 µM) | 6 (≈ 17.2 µM) | 2 (≈ 5.72 µM) | 6 (≈ 17.2 µM) | 3 (≈ 8.59 µM) |  |  |  |  |  |  |  |  |  |
| Cc1ccc(NC(=S)NNC(=O)c2cccc(Cl)c2)cc1 | > 1000 | > 1000 | > 1000 | 62.5 (≈ 195 µM) | > 1000 | 62.5 (≈ 195 µM) |  |  |  |  |  |  |  |  |  |

The next lines start with results.

| MIC (Bacillus subtilis [1]) [µg/mL] | MIC (Bacillus cereus [2]) [µg/mL] | MIC (Micrococcus luteus [3]) [µg/mL] | MIC (Staphylococcus aureus [4]) [µg/mL] | MIC [5] [µg/mL] | MIC (Staphylococcus aureus [6]) [µg/mL] | MIC (Escherichia coli [10]) [µg/mL] | SMILES | MBC (Bacillus subtilis [7]) [µg/mL] | MBC (Micrococcus luteus [8]) [µg/mL] | MBC (Bacillus cereus [11]) [µg/mL] | MBC (Staphylococcus aureus [12]) [µg/mL] | MBC [13] [µg/mL] | MBC (Staphylococcus aureus [16]) [µg/mL] | MBC (Escherichia coli [18]) [µg/mL] | also measured |
| --- | --- | --- | --- | --- | --- | --- | --- | --- | --- | --- | --- | --- | --- | --- | --- |
| 125 (≈ 434 µM) | > 1000 | > 1000 | > 1000 | > 1000 | > 1000 |  | S=c1[nH]nc(-c2cccc(Cl)c2)n1-c1ccccc1 |  |  |  |  |  |  |  |  |
| 125 (≈ 308 µM) | 125 (≈ 308 µM) | 1000 (≈ 2470 µM) | 125 (≈ 308 µM) | 1000 (≈ 2470 µM) | > 1000 | 1000 (≈ 2470 µM) | S=c1n(CN2CCCC2)nc(-c2cccc(Cl)c2)n1-c1ccc(Cl)cc1 | > 1000 | 1000 (≈ 2470 µM) | > 1000 | 125 (≈ 308 µM) | 1000 (≈ 2470 µM) | > 1000 | 1000 (≈ 2470 µM) | MBC (Proteus mirabilis [9]; read-out: MBC): > 1000 µg/mL; MBC (Klebsiella pneumoniae [14]; read-out: MBC): 1000 µg/mL (≈ 2470 µM); MIC (Klebsiella pneumoniae [15]): 500 µg/mL (≈ 1230 µM); MIC (Proteus mirabilis [17]; read-out: MIC): > 1000 µg/mL |
| 31.2 (≈ 72.4 µM) | 15.6 (≈ 36.2 µM) | 31.2 (≈ 72.4 µM) | 31.2 (≈ 72.4 µM) | 31.2 (≈ 72.4 µM) | 31.2 (≈ 72.4 µM) |  | O=C(NNC(=S)Nc1ccc(I)cc1)c1cccc(Cl)c1 |  |  |  |  |  |  |  |  |
| 31.2 (≈ 81.2 µM) | 15.6 (≈ 40.6 µM) | 15.6 (≈ 40.6 µM) | 15.6 (≈ 40.6 µM) | 15.6 (≈ 40.6 µM) | 15.6 (≈ 40.6 µM) |  | O=C(NNC(=S)Nc1ccc(Br)cc1)c1cccc(Cl)c1 |  |  |  |  |  |  |  |  |
| 31.2 (≈ 81.2 µM) | 125 (≈ 325 µM) | 62.5 (≈ 162 µM) | 31.2 (≈ 81.2 µM) | 125 (≈ 325 µM) | 62.5 (≈ 162 µM) | > 1000 | Cc1ccc(-n2c(-c3cccc(Cl)c3)nn(CN3CCCC3)c2=S)cc1 | 1000 (≈ 2600 µM) | > 1000 | > 1000 | > 1000 | > 1000 | > 1000 | > 1000 | MBC (Proteus mirabilis [9]; read-out: MBC): > 1000 µg/mL; MBC (Klebsiella pneumoniae [14]; read-out: MBC): > 1000 µg/mL; MIC (Klebsiella pneumoniae [15]): > 1000 µg/mL; MIC (Proteus mirabilis [17]; read-out: MIC): > 1000 µg/mL |
